Laboratory results as given in patent publication US5783703A, “Sulfur-containing compounds method for their use and prodction” (Lederle (Japan), Ltd., priority 1993, dated 1998).
Values after ≈ are worked out from the molar mass of the structure shown. Read-outs that look alike come from different tables or passages of the source.

Experiments:
[1] = system: MRSA; test: Antibacterial activities against clinically isolated microorganism; format: cell-based; conditions: Staphylococcus aureus, read-out: MIC50 against clinically isolated microorganism
Method: (§1) The following strains clinically isolated freshly in Japan were used in this test.
(§2) 2. The test was carried out by the agar plate dilution method in accordance with the standard method of The Japanese Chemotherapy Society. The minimum inhibitory concentration (MIC) was determined in substantially the same manner as the test procedures described in Test I.

[2] = system: E. faecalis; test: as above; format: cell-based; conditions: Enterococcus faecalis, read-out: MIC50 against clinically isolated microorganism
Method: as §1, §2

[3] = system: E. cloacae; test: as above; format: cell-based; conditions: Enterobacter cloacae, 14 strains clinically isolated in Japan
Method: as §1, §2

[4] = system: K. pneumoniae; test: as above; format: cell-based; conditions: Klebsiella pneumoniae, 23 strains clinically isolated in Japan
Method: as §1, §2

[5] = system: S. epidermidis; test: as above; format: cell-based; conditions: Staphylococcus epidermidis, 23 strains clinically isolated in Japan
Method: as §1, §2

[6] = system: S. marcescens; test: as above; format: cell-based; conditions: Serratia marcescens, 27 strains clinically isolated in Japan
Method: as §1
S. marcescens 27 strains
as §2

[7] = Oral absorption study in mice; format: in vivo, mice of ddY strain; conditions: 100 mg/kg, only deesterified Compound (28) detected
Method: 5-week-old male mice of ddY strain were used after fasting overnight. The test compounds in 1% physiological saline solution at a dose of 100 mg/kg were administered orally to a group of 2 mice. Blood was taken from the vena jugularis at 15, 30, 60 and 120 minutes after dosing.

[8] = In situ absorption from rat intestinal loop; format: in vivo, rats of Wistar strain; conditions: rat jejunal loop, 20 mg/kg; only deesterified Compound (28) detected
Method: 7-week-old male rats of Wistar strain were used after fasting overnight. After anesthetizing the animals with ether, the intestine was exteriorized and an acute loop of 30 cm length was prepared from the upper part of jejunum by ligature of both ends. 0.2% physiological saline solutions of the test compounds were injected at a dose of 20 mg/kg into the loop with a syringe, and the loop was returned. About 0.4 ml blood was taken from the vena jugularis at 10, 30, 60 and 120 minutes after dosing.

plasma level of the administered ester itself [7]	plasma level of the administered ester itself [8]	SMILES	MIC50 [1]	MIC50 [2]	MIC50 [3]	MIC50 [4]	MIC50 [5]	MIC50 [6]	MIC50 ([1]; 28 strains clinically isolated in Japan)
		CC(C)(O/N=C(\C(=O)N[C@@H]1C(=O)N2C(C(=O)[O-])=C(C[n+]3ccccc3)CS[C@H]12)c1csc(N)n1)C(=O)O [CAZ, ceftazidime]	100 µg/mL (≈ 183 µM)	25 µg/mL (≈ 45.7 µM)	1.56 µg/mL (≈ 2.85 µM)	0.2 µg/mL (≈ 0.366 µM)	12.5 µg/mL (≈ 22.9 µM)	0.39 µg/mL (≈ 0.714 µM)	
		C[C@@H](O)[C@H]1C(=O)N2C(C(=O)O)=C(SCCN=CN)C[C@H]12 [Imipenem, imipenem]		0.78 µg/mL (≈ 2.61 µM)	0.2 µg/mL (≈ 0.668 µM)	0.2 µg/mL (≈ 0.668 µM)	0.2 µg/mL (≈ 0.668 µM)	1.56 µg/mL (≈ 5.21 µM)	3.13 µg/mL (≈ 10.5 µM)
undetectable	undetectable	CC(OC(=O)OC1CCCCC1)OC(=O)C1=C(SC2CN(C3=NCCS3)C2)[C@H](C)[C@@H]2[C@@H]([C@@H](C)O)C(=O)N12 (stereo partly drawn) [Compound (33), 1-[(cyclohexyloxy)carbonyloxy] ethyl (1R,5S,6S)-2-[1-(1,3-thiazolin-2-yl)azetidin-3-yl]thio-6-[(R)-1-hydroxyethyl]-1-methylcarbapen-2-em-3-carboxylate]							
